Experimental data taken from patent US20260049084A1, “ENPP1 MODULATORS AND PRODUCTS AND USES THEREOF” (Gossamer Bio Services, Inc., priority 2022, published 2026).

Legend:
[1] = molecular target: Recombinant human ENPP3 protein (Homo sapiens (Human), UniProt O14638); experiment: ENPP3 cGAMP Biochemical Assay; settings: 70.5 nM ENPP3, 120 μM 2′3′-cGAMP substrate, TR-FRET
Protocol: ENPP3 cGAMP Biochemical Assay
Compounds were added to 384 well Proxiplate (PerkinElmer, Waltham MA) at 100 nl/well from DMSO stocks using Echo (Labcyte, San Jose CA). Recombinant human ENPP3 protein (Acro Biosystems, Newwark DE) was prepared in assay buffer (50 mM Tris pH7.5, 1 mM TCEP pH7.0, 2 mM MgCl2, 2 mM CaCl2), 2 mM ZnCl2 and 0.005% Tween20) and added at 2 μl/well. The plate was sealed, centrifuged at 1000 rpm for 1 minute and incubated at room temperature for 30 minutes before 2 μl substrate 2′3′-cGAMP (R&D Systems, Minneapolis MN) in assay buffer was added to each well to a final concentration of 70.5 nM ENPP3 and 120 μM 2′3′-cGAMP. The plate was sealed and centrifuged at 1000 rpm for 1 minute again. After incubation at 25° C. for 60 minutes, Terbium labelled AMP/GMP antibody and AMP/GMP HiLyte647 Tracer (BellBrook Labs, Fitchburg WI) in detection buffer (50 mM Tris pH7.5, 20 mM EDTA and 0.1% Prionex) were added to the reaction mixture to a final concentration of 475 nM and 3 nM respectively. The assay plate was incubated at room temperature for 120 minutes. TR-FRET signal was detected using Envision (PerkinElmer, Waltham MA).

[2] = molecular target: Recombinant human ENPP1 protein (Homo sapiens (Human), UniProt P22413); experiment: ENPP1 cGAMP Biochemical Assay; settings: 0.5 nM ENPP1, 1000 nM 2′3′-cGAMP substrate, TR-FRET
Sequence of Recombinant human ENPP1 protein (P22413 whole entry): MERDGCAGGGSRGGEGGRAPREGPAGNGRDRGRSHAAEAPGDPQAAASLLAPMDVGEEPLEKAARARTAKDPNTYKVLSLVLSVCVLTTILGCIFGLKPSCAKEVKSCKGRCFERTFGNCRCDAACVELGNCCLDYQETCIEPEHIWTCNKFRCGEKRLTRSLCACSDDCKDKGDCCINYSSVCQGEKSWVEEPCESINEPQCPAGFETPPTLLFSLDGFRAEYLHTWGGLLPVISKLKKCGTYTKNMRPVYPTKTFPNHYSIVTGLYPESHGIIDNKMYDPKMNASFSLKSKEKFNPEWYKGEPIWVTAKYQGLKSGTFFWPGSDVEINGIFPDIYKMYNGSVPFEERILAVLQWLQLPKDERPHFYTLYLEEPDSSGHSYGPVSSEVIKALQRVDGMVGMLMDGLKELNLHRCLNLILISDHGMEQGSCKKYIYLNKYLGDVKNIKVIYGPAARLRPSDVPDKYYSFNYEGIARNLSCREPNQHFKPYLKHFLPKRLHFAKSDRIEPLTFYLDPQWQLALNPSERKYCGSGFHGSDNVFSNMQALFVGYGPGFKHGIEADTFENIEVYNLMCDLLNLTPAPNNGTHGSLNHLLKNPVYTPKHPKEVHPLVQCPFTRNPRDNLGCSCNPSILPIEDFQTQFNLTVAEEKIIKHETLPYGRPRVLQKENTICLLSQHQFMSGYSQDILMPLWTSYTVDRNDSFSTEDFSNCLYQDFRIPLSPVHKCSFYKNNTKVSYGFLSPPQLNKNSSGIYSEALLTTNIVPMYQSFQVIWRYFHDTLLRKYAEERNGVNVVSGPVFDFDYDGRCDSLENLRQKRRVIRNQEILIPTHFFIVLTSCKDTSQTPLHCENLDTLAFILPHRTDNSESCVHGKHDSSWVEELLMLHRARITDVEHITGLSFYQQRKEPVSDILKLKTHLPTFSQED
Protocol: ENPP1 cGAMP Biochemical Assay
Compounds were added to 384 well Proxiplate (PerkinElmer, Waltham MA) at 100 nl/well from DMSO stocks using Echo (Labcyte, San Jose CA). Recombinant human ENPP1 protein (R&D Systems, Minneapolis MN) was prepared in assay buffer (50 mM Tris pH7.5, 1 mM TCEP pH7.0, 2 mM MgCl2 and 0.005% Tween20) and added at 10 μl/well. The plate was sealed, centrifuged at 1000 rpm for 1 minute and incubated at room temperature for 30 minutes before 5 μl substrate 2′3′-cGAMP (R&D Systems, Minneapolis MN) in assay buffer was added to each well to a final concentration of 0.5 nM ENPP1 and 1000 nM 2′3′-cGAMP. The plate was sealed and centrifuged at 1000 rpm for 1 minute again. After incubation at 25° C. for 60 minutes, Terbium labelled AMP/GMP antibody and AMP/GMP HiLyte647 Tracer (BellBrook Labs, Fitchburg WI) in detection buffer (50 mM Tris pH7.5, 20 mM EDTA and 0.1% Prionex) were added to the reaction mixture to a final concentration of 2 nM (5 μl/well). The assay plate was incubated at room temperature for 120 minutes. TR-FRET signal was detected using Envision (PerkinElmer, Waltham MA).

Sequence of Recombinant human ENPP3 protein (O14638 whole entry): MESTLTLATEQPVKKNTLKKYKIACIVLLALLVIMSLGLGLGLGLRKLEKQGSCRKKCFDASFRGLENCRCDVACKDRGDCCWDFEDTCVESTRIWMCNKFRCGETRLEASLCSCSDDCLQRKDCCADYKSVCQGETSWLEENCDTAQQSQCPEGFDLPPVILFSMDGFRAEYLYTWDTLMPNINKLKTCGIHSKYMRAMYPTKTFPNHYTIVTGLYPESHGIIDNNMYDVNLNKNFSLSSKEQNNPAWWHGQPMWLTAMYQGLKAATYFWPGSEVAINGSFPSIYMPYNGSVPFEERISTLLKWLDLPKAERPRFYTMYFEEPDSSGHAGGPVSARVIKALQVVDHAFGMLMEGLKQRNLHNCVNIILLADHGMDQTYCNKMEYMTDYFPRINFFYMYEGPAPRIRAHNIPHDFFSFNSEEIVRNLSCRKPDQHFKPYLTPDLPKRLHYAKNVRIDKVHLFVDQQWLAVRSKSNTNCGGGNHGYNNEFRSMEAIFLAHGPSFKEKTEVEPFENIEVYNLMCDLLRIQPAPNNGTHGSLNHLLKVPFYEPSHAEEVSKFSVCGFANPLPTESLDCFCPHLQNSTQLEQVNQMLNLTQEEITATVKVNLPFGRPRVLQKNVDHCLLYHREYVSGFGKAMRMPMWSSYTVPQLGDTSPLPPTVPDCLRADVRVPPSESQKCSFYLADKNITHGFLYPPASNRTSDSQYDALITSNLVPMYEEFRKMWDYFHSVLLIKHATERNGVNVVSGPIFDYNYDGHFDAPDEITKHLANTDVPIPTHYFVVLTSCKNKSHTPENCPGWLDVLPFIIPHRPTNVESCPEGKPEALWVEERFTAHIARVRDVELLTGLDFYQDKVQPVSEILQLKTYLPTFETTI

| SMILES | IC50 [1] | IC50 [2] |
| --- | --- | --- |
| CN=S(C)(=O)c1ccc(CNc2ccnc3c2c(Cl)nn3CC#N)cc1 (stereo not shown) [Compound 10D, 2-(3-chloro-4-((4-(N,S-dimethylsulfonimidoyl)benzyl)amino)-1H-pyrazolo[3,4-b]pyridin-1-yl)acetonitrile] | ≥ 1000 nM | 100 to 1000 nM |
| CN[S@](=N)(=O)c1ccc(CNc2ccnc3c2c(Cl)nn3CC#N)cc1 [Compound 10E, (S)-4-(((3-chloro-1-(cyanomethyl)-1H-pyrazolo[3,4-b]pyridin-4-yl)amino)methyl)-N-methylbenzenesulfonimidamide] | 100 to 1000 nM | < 10 nM |
| CN[S@@](=N)(=O)c1ccc(CNc2ccnc3c2c(Cl)nn3CC#N)cc1 [Compound 10F, (R)-4-(((3-chloro-1-(cyanomethyl)-1H-pyrazolo[3,4-b]pyridin-4-yl)amino)methyl)-N-methylbenzenesulfonimidamide] | ≥ 1000 nM | 10 to 100 nM |
| C#CCn1nc(Cl)c2c(NCc3ccc(S(=N)(N)=O)cc3)ccnc21 (stereo not shown) [Compound 11A, 4-(((3-chloro-1-(prop-2-yn-1-yl)-1H-pyrazolo[3,4-b]pyridin-4-yl)amino)methyl)benzenesulfonimidamide] | 10 to 100 nM | < 10 nM |
| N#CCn1nc(Cl)c2c(NCc3ccc(S(=N)(N)=O)cc3)ccnc21 (stereo not shown) [Compound 11B, 4-(((3-chloro-1-(cyanomethyl)-1H-pyrazolo[3,4-b]pyridin-4-yl)amino)methyl)benzenesulfonimidamide] | 100 to 1000 nM | < 10 nM |
| CCn1nc(Cl)c2c(NCc3ccc(S(=N)(N)=O)cc3)ccnc21 (stereo not shown) [Compound 11C, 4-(((3-chloro-1-ethyl-1H-pyrazolo[3,4-b]pyridin-4-yl)amino)methyl)benzenesulfonimidamide] | ≥ 1000 nM | < 10 nM |
| C#CCn1nc(Cl)c2c(NCc3ccc(S(N)(=O)=NC)cc3)ccnc21 (stereo not shown) [Compound 12A, 4-(((3-chloro-1-(prop-2-yn-1-yl)-1H-pyrazolo[3,4-b]pyridin-4-yl)amino)methyl)-N′-methylbenzenesulfonimidamide] | 10 to 100 nM | < 10 nM |
| CN=S(N)(=O)c1ccc(CNc2ccnc3c2c(Cl)nn3CC#N)cc1 (stereo not shown) [Compound 12B, 4-(((3-chloro-1-(cyanomethyl)-1H-pyrazolo[3,4-b]pyridin-4-yl)amino)methyl)-N′-methylbenzenesulfonimidamide] | 100 to 1000 nM | < 10 nM |
| CCn1nc(Cl)c2c(NCc3ccc([S@@](N)(=O)=NC)cc3)ccnc21 [Compound 12C, (S)-4-(((3-chloro-1-ethyl-1H-pyrazolo[3,4-b]pyridin-4-yl)amino)methyl)-N′-methyl benzenesulfonimidamide] | ≥ 1000 nM | 10 to 100 nM |
| CCn1nc(Cl)c2c(NCc3ccc([S@](N)(=O)=NC)cc3)ccnc21 [Compound 12D, (R)-4-(((3-chloro-1-ethyl-1H-pyrazolo[3,4-b]pyridin-4-yl)amino)methyl)-N′-methyl benzenesulfonimidamide] | ≥ 1000 nM | 10 to 100 nM |
| CCn1nc(Cl)c2c(NCc3ccc(S(N)(=O)=NCC(F)(F)F)cc3)ccnc21 (stereo not shown) [Compound 12E, 4-(((3-chloro-1-ethyl-1H-pyrazolo[3,4-b]pyridin-4-yl)amino)methyl)-N′-(2,2,2-trifluoroethyl) benzenesulfonimidamide] | ≥ 1000 nM | 10 to 100 nM |
| CCn1nc(Cl)c2c(NCc3ccc(S(N)(=O)=NC#N)cc3)ccnc21 (stereo not shown) [Compound 12F, 4-(((3-chloro-1-ethyl-1H-pyrazolo[3,4-b]pyridine-4-yl)amino)methyl)-N′-cyano benzenesulfonimidamide] | 10 to 100 nM | < 10 nM |

Continued, values first:

| IC50 [1] | IC50 [2] | SMILES |
| --- | --- | --- |
| 10 to 100 nM | < 10 nM | C#CCn1nc(Cl)c2c(NCC3CCN(S(C)(=N)=O)CC3)ccnc21 (stereo not shown) [Compound 13A, 3-chloro-N-((1-(S-methylsulfonimidoyl)piperidin-4-yl)methyl)-1-(prop-2-yn-1-yl)-1H-pyrazolo[3,4-b]pyridin-4-amine] |
| 10 to 100 nM | < 10 nM | C#CCn1nc(Cl)c2c(NCC3CCN([S@](C)(=N)=O)CC3)ccnc21 [Compound 13B, (S)-3-chloro-N-((1-(S-methylsulfonimidoyl)piperidin-4-yl)methyl)-1-(prop-2-yn-1-yl)-1H-pyrazolo[3,4-b]pyridin-4-amine] |
| ≥ 1000 nM | < 10 nM | C#CCn1nc(Cl)c2c(NCC3CCN([S@@](C)(=N)=O)CC3)ccnc21 [Compound 13C, (R)-3-chloro-N-((1-(S-methylsulfonimidoyl)piperidin-4-yl)methyl)-1-(prop-2-yn-1-yl)-1H-pyrazolo[3,4-b]pyridin-4-amine] |
| 10 to 100 nM | < 10 nM | CS(=N)(=O)N1CCC(CNc2ccnc3c2c(Cl)nn3CC#N)CC1 (stereo not shown) [Compound 13D, 2-(3-chloro-4-(((1-(S-methylsulfonimidoyl)piperidin-4-yl)methyl)amino)-1H-pyrazolo[3,4-b]pyridin-1-yl)acetonitrile] |
| 10 to 100 nM | < 10 nM | C[S@@](=N)(=O)N1CCC(CNc2ccnc3c2c(Cl)nn3CC#N)CC1 [Compound 13E, (S)-2-(3-chloro-4-(((1-(S-methylsulfonimidoyl)piperidin-4-yl)methyl)amino)-1H-pyrazolo[3,4-b]pyridin-1-yl)acetonitrile] |
| ≥ 1000 nM | 100 to 1000 nM | C[S@](=N)(=O)N1CCC(CNc2ccnc3c2c(Cl)nn3CC#N)CC1 [Compound 13F, (R)-2-(3-chloro-4-(((1-(S-methylsulfonimidoyl)piperidin-4-yl)methyl)amino)-1H-pyrazolo[3,4-b]pyridin-1-yl)acetonitrile] |
| ≥ 1000 nM | 10 to 100 nM | CCn1nc(Cl)c2c(NCC3CCN([S@@](C)(=N)=O)CC3)ccnc21 [Compound 13G, (R)-3-chloro-1-ethyl-N-((1-(S-methylsulfonimidoyl)piperidin-4-yl)methyl)-1H-pyrazolo[3,4-b]pyridin-4-amine] |
| ≥ 1000 nM | 10 to 100 nM | CCn1nc(Cl)c2c(NCC3CCN([S@](C)(=N)=O)CC3)ccnc21 [Compound 13H, (S)-3-chloro-1-ethyl-N-((1-(S-methylsulfonimidoyl)piperidin-4-yl)methyl)-1H-pyrazolo[3,4-b]pyridin-4-amine] |
| ≥ 1000 nM | 10 to 100 nM | CCn1nc(Cl)c2c(NCC3CCN(S(=N)(=O)CCOC)CC3)ccnc21 (stereo not shown) [Compound 14B, 3-chloro-1-ethyl-N-((1-(2-methoxyethylsulfonimidoyl)piperidin-4-yl)methyl)-1H-pyrazolo[3,4-b]pyridin-4-amine] |
| ≥ 1000 nM | 10 to 100 nM | CCn1nc(Cl)c2c(NCC3CCN([S@@](=N)(=O)CCOC)CC3)ccnc21 [Compound 14C, (R)-3-chloro-1-ethyl-N-((1-(2-methoxyethylsulfonimidoyl)piperidin-4-yl)methyl)-1H-pyrazolo[3,4-b]pyridin-4-amine] |
| ≥ 1000 nM | 10 to 100 nM | CCn1nc(Cl)c2c(NCC3CCN([S@](=N)(=O)CCOC)CC3)ccnc21 [Compound 14D, (S)-3-chloro-1-ethyl-N-((1-(2-methoxyethylsulfonimidoyl)piperidin-4-yl)methyl)-1H-pyrazolo[3,4-b]pyridin-4-amine] |
| 100 to 1000 nM | < 10 nM | CCn1nc(Cl)c2c(NCC3CCN(S(=N)(=O)CCC(=O)O)CC3)ccnc21 (stereo not shown) [Compound 14F, 3-(4-(((3-chloro-1-ethyl-1H-pyrazolo[3,4-b]pyridin-4-yl)amino)methyl)piperidine-1-sulfonimidoyl)propanoic acid] |
| ≥ 1000 nM | < 10 nM | C#CCn1nc(Cl)c2c(NCC3CCN([S@@](C)(=O)=NC#N)CC3)ccnc21 [Compound 14I, (S)-N-((4-(((3-chloro-1-(prop-2-yn-1-yl)-1H-pyrazolo[3,4-b]pyridin-4-yl)amino)methyl)piperidin-1-yl)(methyl)(oxo)-λ6-sulfaneylidene)cyanamide] |
| ≥ 1000 nM | 100 to 1000 nM | C#CCn1nc(Cl)c2c(NCC3CCN([S@](C)(=O)=NC#N)CC3)ccnc21 [Compound 14J, (R)-N-((4-(((3-chloro-1-(prop-2-yn-1-yl)-1H-pyrazolo[3,4-b]pyridin-4-yl)amino)methyl)piperidin-1-yl)(methyl)(oxo)-λ6-sulfaneylidene)cyanamide] |
